Source: US10947213B1 (Merck Patent GmbH, priority 2015, dated 2021)

Target: T1, TLR7/NFKb HEK cells (Homo sapiens, UniProt Q9NYK1)
T1 construct: expressed in transfected cells; host or cells: HEK cells (TLR7/NFKb reporter line)
T1 sequence (Q9NYK1 27-1049): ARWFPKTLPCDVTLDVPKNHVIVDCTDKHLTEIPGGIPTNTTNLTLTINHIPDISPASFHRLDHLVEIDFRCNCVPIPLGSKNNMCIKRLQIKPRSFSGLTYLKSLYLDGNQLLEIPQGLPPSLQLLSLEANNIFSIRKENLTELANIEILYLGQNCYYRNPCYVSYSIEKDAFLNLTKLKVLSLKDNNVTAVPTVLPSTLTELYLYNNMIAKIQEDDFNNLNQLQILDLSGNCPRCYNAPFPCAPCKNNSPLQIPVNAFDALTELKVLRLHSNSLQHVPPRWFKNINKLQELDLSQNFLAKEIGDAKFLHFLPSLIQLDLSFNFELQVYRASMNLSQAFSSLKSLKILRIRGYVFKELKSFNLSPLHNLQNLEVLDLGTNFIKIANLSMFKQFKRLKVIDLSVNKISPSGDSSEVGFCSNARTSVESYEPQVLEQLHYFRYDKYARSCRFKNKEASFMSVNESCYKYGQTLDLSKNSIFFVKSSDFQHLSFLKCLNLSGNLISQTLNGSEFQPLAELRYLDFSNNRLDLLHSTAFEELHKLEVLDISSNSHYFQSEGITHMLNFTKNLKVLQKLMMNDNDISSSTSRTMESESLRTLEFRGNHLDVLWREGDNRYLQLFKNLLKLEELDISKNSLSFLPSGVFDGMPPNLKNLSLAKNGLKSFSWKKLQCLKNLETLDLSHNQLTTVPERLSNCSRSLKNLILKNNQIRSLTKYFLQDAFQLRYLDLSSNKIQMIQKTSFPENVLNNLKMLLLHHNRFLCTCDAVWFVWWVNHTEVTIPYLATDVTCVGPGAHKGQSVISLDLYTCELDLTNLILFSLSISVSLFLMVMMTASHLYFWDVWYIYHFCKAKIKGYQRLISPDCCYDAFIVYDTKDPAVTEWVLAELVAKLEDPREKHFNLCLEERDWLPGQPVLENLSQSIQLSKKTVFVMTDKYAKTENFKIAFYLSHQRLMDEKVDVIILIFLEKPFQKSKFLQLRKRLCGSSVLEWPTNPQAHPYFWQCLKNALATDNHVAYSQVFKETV
Experiment: HEK Cell Assay (TLR7/NFKb reporter, Steady-Glo luciferase readout)
Type: cell-based
Details: 30 min compound preincubation, then R*48 agonist for 5 hours, read-out: Potency
Method in brief: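 Steady-Glo luminescence after 5 h stimulation with R*48 agonist, following 30 min compound preincubation. Assay run in HEK cells carrying a TLR7/NFKb luciferase reporter, plated at 5000 cells/well and grown 24 h at 37° C (10% CO2) before treatment.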

| SMILES | IC50 [nM] |
| --- | --- |
| CN1CCC(NC2CC(C(F)(F)F)CN(c3ccc(C#N)c4nccnc34)C2)C1=O (single isomer, unassigned) [Compound 226] | < 1000 |
| CN1CCC(NC2CC(C(F)(F)F)CN(c3ccc(C#N)c4nccnc34)C2)C1=O (single isomer, unassigned) [Compound 227] | 1000 to 10000 |
| C[C@H]1C[C@@H](NC2CCN(C)C2=O)CN(c2ccc(C(F)(F)F)c3ncccc23)C1 (single isomer, unassigned) [Compound 238] | < 1000 |
| C[C@H]1C[C@@H](NC2CCN(C)C2=O)CN(c2ccc(Cl)c3ncccc23)C1 (single isomer, unassigned) [Compound 260] | < 1000 |
| C[C@H]1C[C@@H](NC2CCN(C)C2=O)CN(c2ccc(Cl)c3ncccc23)C1 (single isomer, unassigned) [Compound 261] | < 1000 |
| CC1CC(N)CN(c2ccc(F)c3nccnc23)C1 (single isomer, unassigned) [Compound 339] | < 1000 |
| CC1CC(N)CN(c2ccc(F)c3nccnc23)C1 (single isomer, unassigned) [Compound 340] | 1000 to 10000 |
| C[C@H]1C[C@@H](NC(=O)C(N)C(F)(F)F)CN(c2c(F)cc(C#N)c3nccnc23)C1 (single isomer, unassigned) [Compound 345] | > 10000 |
| C[C@H]1C[C@@H](NC2CCN(C)C2=O)CN(c2ccc(C(F)(F)F)c3nccnc23)C1 (single isomer, unassigned) [Compound 352] | < 1000 |
| C[C@H]1C[C@@H](NC(=O)CC2C3CC2CN(C)C3)CN(c2ccc(C#N)c3nccnc23)C1 (single isomer, unassigned) [Compound 358] | < 1000 |
| CC(C(=O)N[C@@H]1C[C@H](C)CN(c2ccc(C(F)(F)F)c3nccnc23)C1)N1CCC(O)CC1 (single isomer, unassigned) [Compound 371] | < 1000 |
| CC(C(=O)N[C@@H]1C[C@H](C)CN(c2ccc(C(F)(F)F)c3nccnc23)C1)N1CCC(O)CC1 (single isomer, unassigned) [Compound 372] | < 1000 |
| CC(C)[C@H](O)C(=O)NC1CC(C(F)(F)F)CN(c2ccc(C#N)c3ncccc23)C1 (single isomer, unassigned) [Compound 429] | > 10000 |
| CCN1CCC[C@H]1C(=O)NC1CC(C(F)(F)F)CN(c2ccc(C#N)c3ncccc23)C1 (single isomer, unassigned) [Compound 438] | 1000 to 10000 |
| O=C(NC1CCN(CC2CC2)C1)C1CCN(c2ccc(C(F)(F)F)c3ncccc23)CC1 (single isomer, unassigned) [Compound 444] | < 1000 |
| CN(C)CC(=O)NC1CN(c2ccc(C#N)c3ncccc23)CC(F)(F)C1 (single isomer, unassigned) [Compound 449] | < 1000 |
| N#Cc1ccc(N2CC(NC(=O)CCC(=O)N3CCC3)CC(C(F)(F)F)C2)c2cccnc12 (single isomer, unassigned) [Compound 495] | 1000 to 10000 |
| CC(C(=O)NC1CN(c2ccc(C#N)c3nccnc23)CC(F)(F)C1)N1CCC1 (single isomer, unassigned) [Compound 508] | 1000 to 10000 |
| CN1CCC(CC(=O)NC2CN(c3ccc(C#N)c4nccnc34)CC(F)(F)C2)CC1 (single isomer, unassigned) [Compound 522] | < 1000 |
| CN1CCC(CC(=O)NC2CN(c3ccc(C#N)c4nccnc34)CC(F)(F)C2)CC1 (single isomer, unassigned) [Compound 523] | < 1000 |
| NC1CN(c2ccc(C(F)(F)F)c3ncccc23)CC(F)(F)C1 (single isomer, unassigned) [Compound 527] | < 1000 |
| NC1CN(c2ccc(C(F)(F)F)c3ncccc23)CC(F)(F)C1 (single isomer, unassigned) [Compound 528] | 1000 to 10000 |
| CC1CC(CN2CCN(C)CC2)CN(c2ccc(C(F)(F)F)c3ncccc23)C1 (single isomer, unassigned) [Compound 533, cis-5-[3-Methyl-5-(4-methyl-piperazin-1-ylmethyl)-piperidin-1-yl]-8-trifluoromethyl-quinoline] | < 1000 |
| CC1CC(CN2CCN(C)CC2)CN(c2ccc(C(F)(F)F)c3ncccc23)C1 (single isomer, unassigned) [Compound 534, trans-5-[3-Methyl-5-(4-methyl-piperazin-1-ylmethyl)-piperidin-1-yl]-8-trifluoromethyl-quinoline] | 1000 to 10000 |

Second part, the compound after the results:

| IC50 [nM] | SMILES |
| --- | --- |
| < 1000 | C[C@H]1C[C@@H](NC2CCN(C)C2=O)CN(c2ccc(C(F)(F)F)c3ncccc23)C1 (single isomer, unassigned) [Compound 237] |
| > 10000 | C[C@H]1C[C@@H](NC(=O)C(N)C(F)(F)F)CN(c2c(F)cc(C#N)c3nccnc23)C1 (single isomer, unassigned) [Compound 346] |
| < 1000 | C[C@H]1C[C@@H](NC2CCN(C)C2=O)CN(c2ccc(C(F)(F)F)c3nccnc23)C1 (single isomer, unassigned) [Compound 353] |
| < 1000 | C[C@H]1C[C@@H](NC(=O)CC2C3CC2CN(C)C3)CN(c2ccc(C#N)c3nccnc23)C1 (single isomer, unassigned) [Compound 357] |
| < 1000 | CC(C(=O)N[C@@H]1C[C@H](C)CN(c2ccc(C(F)(F)F)c3nccnc23)C1)N1CC(N)C1 (single isomer, unassigned) [Compound 369] |
| < 1000 | CC(C(=O)N[C@@H]1C[C@H](C)CN(c2ccc(C(F)(F)F)c3nccnc23)C1)N1CC(N)C1 (single isomer, unassigned) [Compound 370] |
| < 1000 | CC(C)[C@H](O)C(=O)NC1CC(C(F)(F)F)CN(c2ccc(C#N)c3ncccc23)C1 (single isomer, unassigned) [Compound 430] |
| 1000 to 10000 | CCN1CCC[C@H]1C(=O)NC1CC(C(F)(F)F)CN(c2ccc(C#N)c3ncccc23)C1 (single isomer, unassigned) [Compound 437] |
| < 1000 | O=C(NC1CCN(CC2CC2)C1)C1CCN(c2ccc(C(F)(F)F)c3ncccc23)CC1 (single isomer, unassigned) [Compound 445] |
| 1000 to 10000 | CN(C)CC(=O)NC1CN(c2ccc(C#N)c3ncccc23)CC(F)(F)C1 (single isomer, unassigned) [Compound 450] |
| < 1000 | N#Cc1ccc(N2CC(NC(=O)C(N)C3CC3)CC(C(F)(F)F)C2)c2cccnc12 (single isomer, unassigned) [Compound 487] |
| > 10000 | N#Cc1ccc(N2CC(NC(=O)CCC(=O)N3CCC3)CC(C(F)(F)F)C2)c2cccnc12 (single isomer, unassigned) [Compound 494] |
| < 1000 | N#Cc1ccc(N2CC(NC(=O)CC3(N)CCCCC3)CC(C(F)(F)F)C2)c2cccnc12 (single isomer, unassigned) [Compound 497] |
| < 1000 | N#Cc1ccc(N2CC(NC(=O)CC3(N)CCCCC3)CC(C(F)(F)F)C2)c2cccnc12 (single isomer, unassigned) [Compound 498] |
| < 1000 | CC(C(=O)NC1CN(c2ccc(C#N)c3nccnc23)CC(F)(F)C1)N1CCC1 (single isomer, unassigned) [Compound 507] |
| < 1000 | C[C@H]1C[C@@H](NC(=O)C(O)C2CC2)CN(c2ccc(C(F)(F)F)c3ncccc23)C1 (single isomer, unassigned) [Compound 520] |
| < 1000 | C[C@H]1C[C@@H](NC(=O)C(O)C2CC2)CN(c2ccc(C(F)(F)F)c3ncccc23)C1 (single isomer, unassigned) [Compound 521] |
